Source: the supplement of paper PMC8149375

What was measured:
Details in all cases: treatment: drug + dasatinib (fixed dose, not stated); 5 days
TK-10 [1] = experiment: minimum viability across doses, drug + dasatinib, relative to DMSO (fraction); higher = less growth inhibition
Protocol: (§1)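 Primary HTS combination arm: 8 RCC cell lines treated with 8 doses (up to 10 uM) of each library drug plus a fixed dose of dasatinib (dose not stated) for 5 days; viability read by CellTiter-Glo and normalised to DMSO. GI50 was fitted with XLfit, AUC is the area under the dose-response curve, and minimum viability is the lowest fraction of DMSO viability across doses.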

ACHN [2] = experiment: as above
Protocol: as §1

CAKI-1 [3] = experiment: as above
Protocol: as §1

786-O [4] = experiment: as above
Protocol: as §1

769-P [5] = experiment: as above
Protocol: as §1

UO-31 [6] = experiment: as above
Protocol: as §1

SN12C [7] = experiment: as above
Protocol: as §1

A498 [8] = experiment: as above
Protocol: as §1

TK-10 [9] = experiment: GI50 of drug in presence of dasatinib; higher = less potent
Protocol: as §1

ACHN [10] = experiment: as above
Protocol: as §1

CAKI-1 [11] = experiment: as above
Protocol: as §1

786-O [12] = experiment: as above
Protocol: as §1

769-P [13] = experiment: as above
Protocol: as §1

UO-31 [14] = experiment: as above
Protocol: as §1

SN12C [15] = experiment: as above
Protocol: as §1

A498 [16] = experiment: as above
Protocol: as §1

TK-10 [17] = experiment: AUC of dose-response viability curve, drug + dasatinib, normalised to DMSO (arbitrary (AUC of normalised viability)); higher = less growth inhibition
Protocol: as §1

ACHN [18] = experiment: as above
Protocol: as §1

CAKI-1 [19] = experiment: as above
Protocol: as §1

786-O [20] = experiment: as above
Protocol: as §1

769-P [21] = experiment: as above
Protocol: as §1

UO-31 [22] = experiment: as above
Protocol: as §1

SN12C [23] = experiment: as above
Protocol: as §1

A498 [24] = experiment: as above
Protocol: as §1

GI50 of drug (ACHN [10]) [nM] | GI50 of drug (786-O [12]) [nM] | SMILES | minimum viability across doses (TK-10 [1]) | minimum viability across doses (ACHN [2]) | minimum viability across doses (CAKI-1 [3]) | minimum viability across doses (786-O [4]) | minimum viability across doses (769-P [5]) | minimum viability across doses (UO-31 [6]) | minimum viability across doses (SN12C [7]) | minimum viability across doses (A498 [8]) | GI50 of drug (TK-10 [9]) [nM] | GI50 of drug (CAKI-1 [11]) [nM] | GI50 of drug (769-P [13]) [nM] | GI50 of drug (UO-31 [14]) [nM] | GI50 of drug (SN12C [15]) [nM] | GI50 of drug (A498 [16]) [nM] | AUC of dose-response viability curve (TK-10 [17]) | AUC of dose-response viability curve (ACHN [18]) | AUC of dose-response viability curve (CAKI-1 [19]) | AUC of dose-response viability curve (786-O [20]) | AUC of dose-response viability curve (769-P [21]) | AUC of dose-response viability curve (UO-31 [22]) | AUC of dose-response viability curve (SN12C [23]) | AUC of dose-response viability curve (A498 [24])
27.4 | 26.7 | CNC(=O)c1ccccc1Nc1nc(Nc2ccc(N3CCOCC3)cc2OC)ncc1Cl [NVP-TAE226] + Cc1nc(Nc2ncc(C(=O)Nc3c(C)cccc3Cl)s2)cc(N2CCN(CCO)CC2)n1 [dasatinib] | 0.0355 | 0.0673 | 0.0135 | 0.00641 | 0.085 | 0.00626 | 0.132 | 0.201 | 202 | 107 | 750 | 334 | 335 | 5880 | 1.64 | 1.19 | 1.34 | 1.1 | 1.98 | 2.35 | 1.91 | 3.26
2000 | > 10000 | COc1ccc(C2=NC(c3ccc(Cl)cc3)C(c3ccc(Cl)cc3)N2C(=O)N2CCNC(=O)C2)c(OC(C)C)c1 (stereo unspecified) [Nutlin-3] + Cc1nc(Nc2ncc(C(=O)Nc3c(C)cccc3Cl)s2)cc(N2CCN(CCO)CC2)n1 [dasatinib] | 0.665 | 0.2 | 0.168 | 0.707 | 0.519 | 0.583 | 0.712 | 0.905 | > 10000 | 2420 | > 10000 | > 10000 | > 10000 | > 10000 | 2.5 | 1.89 | 2.15 | 2.83 | 2.54 | 4.46 | 2.62 | 3.61
322 | 252 | COc1cccc2cc(-c3nc([C@H]4CC[C@H](C(=O)O)CC4)n4ncnc(N)c34)[nH]c12 [OSI-027] + Cc1nc(Nc2ncc(C(=O)Nc3c(C)cccc3Cl)s2)cc(N2CCN(CCO)CC2)n1 [dasatinib] | 0.152 | 0.0877 | 0.0226 | 0.0675 | 0.227 | 0.00633 | 0.15 | 0.139 | 1100 | 341 | 2380 | 2240 | 1110 | 4020 | 2.23 | 1.67 | 1.65 | 1.84 | 2.25 | 2.91 | 2.05 | 3.08
23.1 | < 3 | C#Cc1cccc(Nc2ncnc3cc(OCCOC)c(OCCO)cc23)c1.Cl [OSI-420 (Desmethyl Erlotinib)] + Cc1nc(Nc2ncc(C(=O)Nc3c(C)cccc3Cl)s2)cc(N2CCN(CCO)CC2)n1 [dasatinib] | 0.379 | 0.0775 | 0.11 | 0.403 | 0.226 | 0.325 | 0.442 | 0.761 | 2320 | 1070 | 510 | 8630 | > 10000 | > 10000 | 2.18 | 1.35 | 1.93 | 2.22 | 1.96 | 3.77 | 2.36 | 3.08
2350 | 4480 | O=C(Nc1ccc(OC(F)(F)F)cc1)c1sccc1NCc1ccnc2ccccc12 [OSI-930] + Cc1nc(Nc2ncc(C(=O)Nc3c(C)cccc3Cl)s2)cc(N2CCN(CCO)CC2)n1 [dasatinib] | 0.395 | 0.129 | 0.136 | 0.32 | 0.24 | 0.0216 | 0.174 | 0.685 | 6520 | 3170 | 3090 | 4590 | 6210 | > 10000 | 2.71 | 2.07 | 2.23 | 2.41 | 2.23 | 3.25 | 2.57 | 3.69
15.4 | 31.6 | COC1=CC(c2cc3ccccc3[nH]2)=N/C1=C\c1[nH]c(C)cc1C.CS(=O)(=O)O [Obatoclax mesylate (GX15-070)] + Cc1nc(Nc2ncc(C(=O)Nc3c(C)cccc3Cl)s2)cc(N2CCN(CCO)CC2)n1 [dasatinib] | 0.151 | 0.014 | 0.00534 | 0.00545 | 0.0261 | 0.00726 | 0.00176 | 0.0102 | 86.6 | 122 | 145 | 305 | 153 | 277 | 1.58 | 0.992 | 1.4 | 0.949 | 1.46 | 2.23 | 1.38 | 1.76
174 | 427 | C=CCc1cccc(/C=N/NC(=O)CN2CCN(Cc3ccccc3)CC2)c1O [PAC-1] + Cc1nc(Nc2ncc(C(=O)Nc3c(C)cccc3Cl)s2)cc(N2CCN(CCO)CC2)n1 [dasatinib] | 0.0728 | 0.0168 | 0.0701 | 0.0103 | 0.0266 | 0.0141 | 0.0519 | 0.169 | 764 | 1350 | 1420 | 2010 | 3460 | 4840 | 2.04 | 1.49 | 2.07 | 1.73 | 2.17 | 3.14 | 2.41 | 3.38
> 10000 | 4870 | CCCCCCCCCCCCc1ccc(S(=O)(=O)Nc2nncs2)cc1 [PHT-427] + Cc1nc(Nc2ncc(C(=O)Nc3c(C)cccc3Cl)s2)cc(N2CCN(CCO)CC2)n1 [dasatinib] | 0.67 | 0.47 | 0.656 | 0.455 | 0.631 | 1.13 | 0.691 | 0.912 | > 10000 | > 10000 | > 10000 | > 10000 | > 10000 | > 10000 | 2.53 | 1.87 | 2.43 | 1.91 | 2.43 | 4.28 | 2.53 | 3.58
31.4 | 73.1 | Oc1cccc(-c2nc(N3CCOCC3)c3oc4ncccc4c3n2)c1 [PI-103] + Cc1nc(Nc2ncc(C(=O)Nc3c(C)cccc3Cl)s2)cc(N2CCN(CCO)CC2)n1 [dasatinib] | 0.0871 | 0.0522 | 0.0121 | 0.0069 | 0.0372 | 0.00638 | 0.116 | 0.111 | 389 | 322 | 461 | 115 | 156 | 386 | 1.86 | 1.2 | 1.63 | 1.43 | 1.84 | 1.49 | 1.57 | 2.06
7.83 | 30.3 | Cc1ccc([N+](=O)[O-])cc1S(=O)(=O)N(C)/N=C/c1cnc2ccc(Br)cn12.Cl [PIK-75] + Cc1nc(Nc2ncc(C(=O)Nc3c(C)cccc3Cl)s2)cc(N2CCN(CCO)CC2)n1 [dasatinib] | 0.124 | 0.00364 | 0.0337 | 0.00381 | 0.00622 | 0.00696 | 0.00539 | 0.00818 | 45.1 | 7.8 | 47.6 | 43 | 57.7 | 65.6 | 1.4 | 0.571 | 0.683 | 0.918 | 1.11 | 1.22 | 1.07 | 1.29
976 | 135 | CC(=O)Nc1nc(C)c(-c2ccc(Cl)c(S(=O)(=O)NCCO)c2)s1 [PIK-93] + Cc1nc(Nc2ncc(C(=O)Nc3c(C)cccc3Cl)s2)cc(N2CCN(CCO)CC2)n1 [dasatinib] | 0.251 | 0.188 | 0.068 | 0.127 | 0.352 | 0.0793 | 0.259 | 0.476 | 3690 | 1170 | 4000 | 4320 | 1890 | 8110 | 2.31 | 1.75 | 2.05 | 1.49 | 2.31 | 3.76 | 2.14 | 3.29
82.8 | 98 | CCn1nnc2c(N3CCOCC3)nc(-c3ccc(NC(=O)Nc4ccc(C(=O)N5CCN(C)CC5)cc4)cc3)nc21 [PKI-402] + Cc1nc(Nc2ncc(C(=O)Nc3c(C)cccc3Cl)s2)cc(N2CCN(CCO)CC2)n1 [dasatinib] | 0.0238 | 0.0465 | 0.0314 | 0.00332 | 0.0547 | 0.00734 | 0.0929 | 0.148 | 117 | 122 | 450 | 350 | 41.6 | 87.5 | 1.55 | 1.25 | 1.48 | 1.41 | 1.86 | 2.39 | 1.19 | 1.66
1070 | 2740 | CCCS(=O)(=O)Nc1ccc(F)c(C(=O)c2c[nH]c3ncc(Cl)cc23)c1F [PLX-4720] + Cc1nc(Nc2ncc(C(=O)Nc3c(C)cccc3Cl)s2)cc(N2CCN(CCO)CC2)n1 [dasatinib] | 0.361 | 0.127 | 0.0731 | 0.212 | 0.641 | 0.806 | 0.679 | 0.765 | 5470 | 1700 | > 10000 | > 10000 | > 10000 | > 10000 | 2.44 | 1.93 | 2.08 | 2.13 | 2.48 | 3.22 | 2.47 | 3

SMILES | GI50 of drug (ACHN [10]) [nM] | GI50 of drug (786-O [12]) [nM] | minimum viability across doses (TK-10 [1]) | minimum viability across doses (ACHN [2]) | minimum viability across doses (CAKI-1 [3]) | minimum viability across doses (786-O [4]) | minimum viability across doses (769-P [5]) | minimum viability across doses (UO-31 [6]) | minimum viability across doses (SN12C [7]) | minimum viability across doses (A498 [8]) | GI50 of drug (TK-10 [9]) [nM] | GI50 of drug (CAKI-1 [11]) [nM] | GI50 of drug (769-P [13]) [nM] | GI50 of drug (UO-31 [14]) [nM] | GI50 of drug (SN12C [15]) [nM] | GI50 of drug (A498 [16]) [nM] | AUC of dose-response viability curve (TK-10 [17]) | AUC of dose-response viability curve (ACHN [18]) | AUC of dose-response viability curve (CAKI-1 [19]) | AUC of dose-response viability curve (786-O [20]) | AUC of dose-response viability curve (769-P [21]) | AUC of dose-response viability curve (UO-31 [22]) | AUC of dose-response viability curve (SN12C [23]) | AUC of dose-response viability curve (A498 [24])
Cc1ccccc1-n1c(Cn2ncc3c(N)ncnc32)nc2cccc(C)c2c1=O [PIK-293] + Cc1nc(Nc2ncc(C(=O)Nc3c(C)cccc3Cl)s2)cc(N2CCN(CCO)CC2)n1 [dasatinib] | 2540 | > 10000 | 0.66 | 0.539 | 0.655 | 0.6 | 0.685 | 1.15 | 0.666 | 0.782 | > 10000 | > 10000 | > 10000 | > 10000 | > 10000 | > 10000 | 2.47 | 2.17 | 2.38 | 2.24 | 2.55 | 4.4 | 2.43 | 3.17
